Measured values: US10889573B2, “Anthelmintic quinoline-3-carboxamide derivatives” (Bayer Animal Health GMBH, priority 2016, dated 2021)

Tests used:
[1] = test system: Nippostrongylus brasiliensis; experiment: In vitro assay 2: Nippostrongylus brasiliensis (NIPOBR), acetylcholine esterase readout; conditions: read-out: activity (reduction of AChE compared to negative control); for inhibition at 1 µg/mL: 1 μg/ml; for inhibition at 10 µg/mL: 10 μg/ml
Experimental: In Vitro Assay 2: Nippostrongylus brasiliensis (NIPOBR)
Adult Nippostrongylus brasiliensis were washed with saline buffer containing 100 U/ml penicillin, 0.1 mg/ml streptomycin and 2.5 μg/ml amphotericin B. Test compounds were dissolved in DMSO and worms were incubated in medium in a final concentration of 10 μg/ml (10 ppm) respectively 1 μg/ml (1 ppm). An aliquot of the medium was used to determine the acetylcholine esterase activity in comparison to a negative control. The principle of measuring acetylcholine esterase as readout for anthelmintic activity was described in Rapson et al (1986) and Rapson et al (1987).

[2] = test system: Dirofilaria immitis microfilariae; experiment: In vitro assay 3: Dirofilaria immitis microfilariae (DIROIM L1), motility; conditions: 72 h, read-out: EC50 (reduction of motility), 72 h incubation
[3] = test system: Dirofilaria immitis third-stage larvae; experiment: In vitro assay 4: Dirofilaria immitis (DIROIM L4), motility; conditions: 72 h, read-out: EC50 (reduction of motility)
Cooperia curticei = conditions: Cooperia curticei, 120 h, read-out: activity (larval mortality)
Experimental: In Vitro Assay 6: Cooperia curticei (COOPCU L3)
Solvent: dimethyl sulfoxide
Approximately 40 nematode larvae (Cooperia curticei) are transferred into a test tube containing the compound solution.
After 5 days percentage of larval mortality is recorded. 100% efficacy means all larvae are killed; 0% efficacy means no larvae are killed.

Haemonchus contortus = conditions: 120 h, read-out: activity (larval mortality)
Experimental: In Vitro Assay 7: Haemonchus contortus (HAEMCO L3)
Solvent: dimethyl sulfoxide
Approximately 40 larvae of the red stomach worm (Haemonchus contortus) are transferred into a test tube containing compound solution.
After 5 days the percentage of larval mortality is recorded. 100% efficacy means all larvae are killed, 0% efficacy means no larvae are killed.

C. elegans Slo-1a = C. elegans Slo-1a (Caenorhabditis elegans, UniProt Q95V25); conditions: pE50 (negative decadic logarithm of EC50), CHO cells expressing C. elegans Slo-1a, voltage sensitive dye
Chain of C. elegans Slo-1a (Q95V25 whole entry): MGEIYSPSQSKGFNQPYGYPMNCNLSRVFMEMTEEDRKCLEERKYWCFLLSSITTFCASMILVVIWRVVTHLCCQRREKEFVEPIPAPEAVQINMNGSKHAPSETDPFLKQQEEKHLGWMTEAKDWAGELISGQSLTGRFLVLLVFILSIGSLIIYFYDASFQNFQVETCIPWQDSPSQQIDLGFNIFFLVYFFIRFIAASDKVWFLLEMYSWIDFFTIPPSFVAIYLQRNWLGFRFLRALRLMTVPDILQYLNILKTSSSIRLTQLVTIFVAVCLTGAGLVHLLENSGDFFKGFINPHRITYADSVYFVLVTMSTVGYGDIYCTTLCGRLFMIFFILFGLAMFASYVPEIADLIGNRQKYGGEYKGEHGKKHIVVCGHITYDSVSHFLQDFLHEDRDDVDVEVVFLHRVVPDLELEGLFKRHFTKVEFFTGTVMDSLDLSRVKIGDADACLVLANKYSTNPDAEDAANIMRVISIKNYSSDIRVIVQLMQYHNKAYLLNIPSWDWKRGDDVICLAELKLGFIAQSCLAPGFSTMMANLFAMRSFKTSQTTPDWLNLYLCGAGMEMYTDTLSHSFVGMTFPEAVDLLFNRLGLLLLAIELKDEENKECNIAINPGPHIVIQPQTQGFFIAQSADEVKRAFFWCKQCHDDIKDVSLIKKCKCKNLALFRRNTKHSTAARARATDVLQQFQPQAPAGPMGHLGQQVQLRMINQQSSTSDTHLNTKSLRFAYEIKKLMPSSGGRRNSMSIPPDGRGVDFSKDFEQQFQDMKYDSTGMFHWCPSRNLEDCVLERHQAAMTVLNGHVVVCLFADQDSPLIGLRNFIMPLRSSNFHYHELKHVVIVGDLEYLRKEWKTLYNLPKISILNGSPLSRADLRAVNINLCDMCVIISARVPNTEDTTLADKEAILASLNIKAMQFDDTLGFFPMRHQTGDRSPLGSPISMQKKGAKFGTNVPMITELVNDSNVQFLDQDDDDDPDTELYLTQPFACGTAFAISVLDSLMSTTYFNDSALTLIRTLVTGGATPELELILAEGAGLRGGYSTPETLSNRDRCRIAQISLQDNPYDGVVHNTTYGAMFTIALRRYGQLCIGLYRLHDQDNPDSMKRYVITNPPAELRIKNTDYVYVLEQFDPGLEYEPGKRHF

SMILES	inhibition at 1 µg/mL [1] [%]	EC50 [2] [µg/mL]	EC50 [3] [µg/mL]	mortality at 4 ppm (Cooperia curticei) [%]	mortality at 20 ppm (Cooperia curticei) [%]	mortality at 4 ppm (Haemonchus contortus) [%]	mortality at 20 ppm (Haemonchus contortus) [%]	EC50 (C. elegans Slo-1a) [nM]	inhibition at 10 µg/mL [1] [%]
O=C(N[C@H]1CCOc2ccccc21)c1cnc2c(-c3cccc(Cl)c3Cl)cccc2c1N1CCC(O)C1 (mixture of isomers) [Example 194]	> 80	< 0.1	< 0.1	100	100	90	100	< 3.16	–
O=C(N[C@H]1CCOc2ccccc21)c1cnc2c(-c3cccc(F)c3Cl)cccc2c1N1CCC(O)C1 (mixture of isomers) [Example 258]	–	< 0.1	< 0.1	80	–	–	90	3.16 to 31.6	–
O=C(N[C@H]1CCOc2ccccc21)c1cnc2c(-c3cccc(Cl)c3)cccc2c1N1CCC(O)C1 (mixture of isomers) [Example 260]	> 80	< 0.1	< 0.1	80	90	80	90	< 3.16	–
O=C(N[C@H]1CCOc2ccccc21)c1cnc2c(-c3cc(Cl)cc(C(F)(F)F)c3)cccc2c1N1CCC(O)C1 (mixture of isomers) [Example 271]	> 80	< 0.1	< 0.1	90	90	90	90	< 3.16	–
Cc1cc(Cl)cc(-c2cccc3c(N4CCC(O)C4)c(C(=O)N[C@H]4CCOc5ccccc54)cnc23)c1F (mixture of isomers) [Example 272]	> 80	< 0.1	< 0.1	–	80	90	90	< 3.16	–
CN(C)c1c(C(=O)N[C@H]2CCOc3ccccc32)cnc2c(-c3cc(F)c(F)c(F)c3)cccc12 [Example 47]	> 80	< 0.1	< 0.1	80	80	90	100	< 3.16	> 80
CN(C)c1c(C(=O)N[C@H]2CCOc3ccccc32)cnc2c(-c3cccc(C(F)(F)F)c3F)cccc12 [Example 50]	> 80	< 0.1	< 0.1	80	90	90	100	< 3.16	> 80
O=C(N[C@H]1CCOc2ccccc21)c1cnc2c(-c3cc(Cl)ccc3F)c(F)ccc2c1N1CCOCC1 [Example 170]	> 80	< 0.1	< 0.1	100	100	100	100	< 3.16	–
CN(C)c1c(C(=O)N[C@H]2CCOc3ccccc32)cnc2c(-c3ccc(F)cc3Cl)c(F)ccc12 [Example 172]	> 80	< 0.1	< 0.1	100	100	80	100	< 3.16	–
O=C(N[C@H]1CCOc2ccccc21)c1cnc2c(-c3cccc4c3OCC4)cccc2c1N1CCOCC1 [Example 204]	> 80	< 0.1	< 0.1	–	100	–	90	3.16 to 31.6	–
O=C(N[C@H]1CCOc2ccccc21)c1cnc2c(-c3cc(Cl)ccc3F)cccc2c1N1CCOCC1 [Example 221]	> 80	< 0.1	< 0.1	90	100	90	100	< 3.16	–
O=C(N[C@H]1CCOc2ccccc21)c1cnc2c(-c3cccc(Cl)c3F)cccc2c1N1CCOCC1 [Example 226]	> 80	< 0.1	< 0.1	100	100	90	100	< 3.16	–
O=C(N[C@H]1CCOc2ccccc21)c1cnc2c(-c3cc(Cl)cc(C(F)(F)F)c3)cccc2c1N1CCOCC1 [Example 235]	> 80	< 0.1	< 0.1	90	100	90	100	< 3.16	–
COC(=O)[C@H]1CCN(c2c(C(=O)N[C@H]3CCOc4ccccc43)cnc3c(-c4cc(Cl)cc(Cl)c4)cccc23)C1 [Example 281]	> 80	< 0.1	< 0.1	80	90	80	80	< 3.16	–
CN(C)c1c(C(=O)N[C@H]2CCOc3ccccc32)cnc2c(-c3cccc(Cl)c3Cl)c(F)ccc12 [Example 330]	> 80	< 0.1	< 0.1	90	90	100	100	< 3.16	–
O=C(N[C@H]1CCOc2ccccc21)c1cnc2c(-c3cc(Cl)cc(Cl)c3)cccc2c1N1CC[C@@H](C(=O)O)C1 [Example 332]	> 80	< 0.1	< 0.1	100	100	100	100	< 3.16	–
CC(C)c1c(C(=O)N[C@H]2CCOc3ccccc32)cnc2c(-c3cc(Cl)cc(Cl)c3)cccc12 [Example 359, 8-(3,5-dichlorophenyl)-N-[(4S)-3,4-dihydro-2H-chromen-4-yl]-4-isopropyl-quinoline-3-carboxamide]	> 80	< 0.1	< 0.1	100	100	100	100	< 3.16	–
CC(C)c1c(C(=O)N[C@H]2CCOc3ccccc32)cnc2c(-c3cccc(C(F)(F)F)c3F)cccc12 [Example 408]	> 80	< 0.1	< 0.1	100	100	90	90	< 3.16	–
CC(C)c1c(C(=O)N[C@H]2CCOc3ccccc32)cnc2c(-c3cccc(C(F)(F)F)c3)cccc12 [Example 411]	> 80	< 0.1	< 0.1	100	100	100	100	< 3.16	–
CN(C)c1c(C(=O)N[C@H]2CCOc3ccccc32)cnc2c(-c3cc(Cl)ncc3Cl)cccc12 [Example 415]	> 80	< 0.1	< 0.1	100	100	90	100	< 3.16	–
COc1ccc(-c2cc(Cl)cc(Cl)c2)c2ncc(C(=O)N[C@H]3CCOc4ccccc43)c(N(C)C)c12 [Example 504]	> 80	< 0.1	< 0.1	100	100	100	100	< 3.16	–
O=C(N[C@H]1CCOc2ccccc21)c1cnc2c(-c3cc(Cl)cc(Cl)c3)cccc2c1C1CCOCC1 [Example 539, 8-(3,5-dichlorophenyl)-N-[(4S)-3,4-dihydro-2H-chromen-4-yl]-4-(tetrahydro-2H-pyran-4-yl)quinoline-3-carboxamide]	–	< 0.1	< 0.1	100	100	100	100	< 3.16	–
CCc1c(C(=O)N[C@H]2CCOc3ccccc32)cnc2c(-c3cc(Cl)cc(Cl)c3Cl)cccc12 [Example 573]	> 80	< 0.1	< 0.1	100	100	100	100	3.16 to 31.6	–
O=C(N[C@H]1CCOc2ccccc21)c1cnc2c(-c3cc(F)cc(F)c3F)cccc2c1C1COC1 [Example 660, N-[(4S)-3,4-dihydro-2H-chromen-4-yl]-4-(oxetan-3-yl)-8-(2,3,5-trifluorophenyl)quinoline-3-carboxamide]	> 80	< 0.1	< 0.1	100	100	100	100	< 3.16	–
